Data reported in patent publication US8507545B2, “Cytotoxic T cell activator comprising EP4 agonist” (National University Corporation, Hamamatsu University …, priority 2007, dated 2013).

Key:
[1] = system: HSVgpB-specific CTLs; assay: Activation of cytotoxic T cells in cervical lymph nodes after tape stripping (HSVgpB pentamer flow cytometry); assay type: in vivo, C57BL/6(B6) mice; details: Example 1(3)
Experimental: (§1) The corneal layers of the auricles of C57BL/6(B6) mice were destroyed by repeating a stripping procedure using an adhesive tape in 10 cycles, and an antigen peptide or EP4 agonist was applied as a test substance. The antigen peptide used was a melanoma-specific antigen peptide (Accord K.K. Peptide Business Department; hereinafter abbreviated TRP-2) in solution in 70% ethanol; 10 μg was applied to one side of each auricle. The EP4 agonist used was 11α,15α,-dihydroxy-9-oxo-16-(3-methoxymethylphenyl)-17,18,19,20-tetranol-3,7-dithiaprost-13E-enoic acid (hereinafter abbreviated Compound A-(1)) in solution in a mixed solvent of acetone:olive oil=10:1; 20 μL of 100 μM solution was applied to one side of each auricle. One week after application of the test substance, the cervical lymph nodes were removed. The frequency of TRP-2-specific CTLs was determined relative to the total number of mononucleocytes in the cervical lymph nodes as 100 by a flowcytometric analysis (FACScaliber; Becton, Dickinson and Company.) with a tetramer (Medical & Biological Laboratories Co., Ltd.). Four experimental groups were established: (1) a group undergoing tape stripping (hereinafter abbreviated TS) alone, (2) a group undergoing TS followed by application of TRP-2, (3) a group undergoing TS followed by application of Compound A-(1), and (4) a group undergoing TS followed by application of TRP-2 and Compound A-(1).
The same procedures as Example 1(1) were followed except that the antigen peptide used was the herpes simplex virus-specific antigen HSV glycoprotein B (hereinafter abbreviated HSVgpB), and that a flowcytometric analysis with a pentamer (ProImmune Company) was performed, and the action of each compound to activate cytotoxic T cells was evaluated. Five experimental groups were established: (1) a group undergoing TS alone, (2) a group undergoing TS followed by application of HSVgpB, (3) a group undergoing TS followed by application of HSVgpB and Compound A-(1), (4) a group undergoing TS followed by application of HSVgpB and Compound L-(1), and (5) a group undergoing TS followed by application of HSVgpB and Compound M-(1).
Note that the herpes simplex virus-specific antigen peptide HSVgpB was synthesized on the basis of the partial sequence shown by SEQ ID NO. 2 (Virology, Vol. 195, pp. 62-70, (1993)) (ProImmune Company).

[2] = system: TRP-2-specific CTLs; assay: Activation of cytotoxic T cells in cervical lymph nodes after tape stripping (TRP-2 tetramer flow cytometry); assay type: in vivo, C57BL/6(B6) mice; details: relative to total mononucleocytes as 100
Experimental: as §1
Note that the melanoma-specific antigen peptide TRP-2 was synthesized on the basis of a partial sequence described in the aforementioned Non-patent Document 1 (SEQ ID NO. 1) (Accord K.K. Peptide Business Department).
The same procedures as Example 1(1) were followed except that the EP4 agonists used were 4-[(2-{(2R)-2-[(1E,3S)-4-(4-fluorophenyl)-3-hydroxybut-1-enyl]-5-oxopyrrolidin-1-yl}ethyl)sulfanyl]butanoic acid (hereinafter abbreviated Compound L-(1)) and 4-{[2-((1R,2R,3R)-3-hydroxy-2-{(1E,3S)-3-hydroxy-4-[3-(methoxymethyl)phenyl]but-1-enyl}-5-oxocyclopentyl)ethyl]sulfanyl}butanoic acid (hereinafter abbreviated Compound M-(1)); the action of each compound to activate cytotoxic T cells was evaluated. Four experimental groups were established: (1) a group undergoing TS alone, (2) a group undergoing TS followed by application of TRP-2, (3) a group undergoing TS followed by application of TRP-2 and Compound L-(1), and (4) a group undergoing TS followed by application of TRP-2 and Compound M-(1).

[3] = system: B16 melanoma cells; assay: Melanoma growth suppressing action; assay type: in vivo, B6 mouse; details: TS followed by application of TRP-2, experimental group (2)
Experimental: The corneal layer was removed from the right auricle of each B6 mouse by TS in the same manner as Example 1, and test substances (TRP-2 and Compound A-(1)) were applied there; 2 weeks later, the left auricle was treated in the same manner. The test substances applied to both ears were used in the same combination; TRP-2 was applied at 10 μg for one side of each auricle, and Compound A-(1) was applied at 20 μl, of 100 μM solution for one side of each auricle. Four days after the above-described treatment, each mouse received 2×10^5 B16 melanoma cells (RIKEN's Cell Bank) by subcutaneous transplantation, and examined for tumor growth. Experimental groups were established as in Example 1(1) (5 animals in each group).
Tumor diameter (mm), as an index of tumor growth, was measured in each group at various days after inoculation of B16 melanoma cells; the results are shown in FIG. 1.

[4] = system: TRP-2-specific CTLs; assay: Activation of cytotoxic T cells in isolated Langerhans cells co-cultured with lymphocytes; assay type: cell-based, C57BL/6(B6) mouse
Experimental: A given area of an auricle epidermal sheet was removed from the corneal layer of one auricle of each C57BL/6(B6) mouse, and trypsinized to yield an epidermal cell suspension. The epidermal cell suspension obtained was subjected to panning using an antibody specific for I-A^b antigen to isolate epidermal Langerhans cells. After each test substance (TRP-2 (concentration; 10 μg/mL) and Compound A-(1) (1 μM)) was added to the Langerhans cells isolated (cell density; 10^5 cells per mL), the cells were cultured with a medium (cRPMI1640 medium; Sigma-Aldrich Japan). Half a day later, the cells were co-cultured with splenocytic lymphocytes isolated from […] for 7 days. Subsequently, by a flowcytometric analysis (FACScaliber; Becton, Dickinson and Company.) using a tetramer (Medical & Biological Laboratories Co., Ltd.), the frequency of TRP-2-specific CTLs was determined relative to the total number of mononucleocytes in the medium as 100. Three experimental groups were established: (1) a group with no treatment, (2) a group with the addition of TRP-2, and (3) a group with the addition of both TRP-2 and Compound A-(1).

[5] = TS followed by application of HSVgpB and the EP4 agonist
[6] = Example 1(2), TS followed by application of TRP-2 and the EP4 agonist, cervical lymph nodes

**Q.** How did the “Ratio of HSVgpB-specific CTLs” value [1, 5] turn out when `O=C(O)CCCSCCN1C(=O)CC[C@@H]1/C=C/[C@@H](O)Cc1ccc(F)cc1` [Compound L-(1), 4-[(2-{(2R)-2-[(1E,3S)-4-(4-fluorophenyl)-3-hydroxybut-1-enyl]-5-oxopyrrolidin-1-yl}ethyl)sulfanyl]butanoic acid] was run?
**A.** 0.29

**Q.** And the “Ratio of TRP-2-specific CTLs” value [2, 6]?
**A.** 1.92

**Q.** Which “Ratio of HSVgpB-specific CTLs” value [1, 5] does the source give for `COCc1cccc(C[C@H](O)/C=C/[C@H]2[C@H](O)CC(=O)[C@@H]2CCSCCCC(=O)O)c1` [Compound M-(1), 4-{[2-((1R,2R,3R)-3-hydroxy-2-{(1E,3S)-3-hydroxy-4-[3-(methoxymethyl)phenyl]but-1-enyl}-5-oxocyclopentyl)ethyl]sulfanyl}butanoic acid] here?
**A.** 0.30

**Q.** What about the “Ratio of TRP-2-specific CTLs” value [2, 6] of the same compound?
**A.** 1.66

**Q.** With “HSVgpB: herpes simplex virus-specific antigen peptide; Herpes Simplex Virus glycoprotein B 498-505 (SEQ ID NO. 2) (SSIEFARL; Herpes Simplex Virus glycoprotein B 498-505) [reference compound]” as the compound, how does the “Ratio of HSVgpB-specific CTLs” value ([1]; TS followed by application of HSVgpB alone) read?
**A.** 0.25

**Q.** For “TRP-2: melanoma-specific antigen peptide; tyrosinase-related protein 2 181-188, partial sequence VYDFFVWL (SEQ ID NO. 1) (Tyrosinase-related protein 2 residues 181-188) [reference compound]”, which “tumor growth suppressing action compared with an EP4 agonist alone” value [3] is on record?
**A.** equivalent

**Q.** And the “Ratio of TRP-2-specific CTLs” value ([4]; addition of TRP-2 (10 μg/mL) alone, 7 days co-culture, relative to total mononucleocytes in the medium as 100)?
**A.** 3.2

**Q.** What about the “ratio of TRP-2-specific CTLs in B6 splenocytic lymphocytes” value ([4]; addition of TRP-2, experimental group (2)) of the same compound?
**A.** increased

**Q.** And the “Ratio of TRP-2-specific CTLs” value ([2]; Example 1(1), TS followed by application of the test substance alone, cervical lymph nodes one week after application)?
**A.** 0.35

**Q.** What about the “Ratio of TRP-2-specific CTLs” value ([2]; Example 1(2), TS followed by application of TRP-2 alone, cervical lymph nodes) of the same compound?
**A.** 1.28
